Each block holds one molecule with its values, some of them ahead of it.
Assays:
TNF-alpha = assay: VLCFA-induced TNF-alpha in patient-derived macrophages treated with D4PBA; format: cell-based, human; details: 300 micromolar; controls, cerebral ALD and AMN patients
Protocol: In a further experiment, peripheral blood mononucleocytes were derived from a cerebral ALD patient, two AMN and one control subject differentiated in culture using same protocol as above for D-NAC therapy. On day 3, cells were treated with various doses of D4-PBA, and then again on day 5, and day 7. On day 7, macrophages were again stimulated with very long chain fatty acids (VLCFA) as in the D-NAC macrophage study mentioned above. Cells were then harvested at 6 h after stimulation.

[1] = test system: primary fibroblasts from male patients with cerebral ALD or AMN; assay: LysoPC C26/C22 ratio in ALD/AMN patient-derived fibroblasts; format: cell-based, human; details: 100 μM free 4PBA
Protocol: Primary fibroblasts from male patients with either cerebral adrenoleukodystrophy (ALD) or adrenomyeloneuropathy (AMN) phenotype were thawed and plated in wells to grow for 4 days. On the 4th day cells were treated with various doses of Dendrimer-4phenylbutyrate (D4PBA) or free 4PBA and maintained in the culture, the treatment was refreshed on Day 7. Cells were harvested for analysis on Day 11. The C26:0, C22:0, and C20:0 very long chain fatty acid fraction of lysophosphatidyl choline (LysoPC) was measured in the harvested cells and the Lyso PC C26/C22 fraction was then calculated as a measure of impaired peroxisomal beta-oxidation.

[2] = test system: cells from X-ALD patients and X-ALD knockout mice; details: cited from earlier work
Solubility and stability = format: physicochemical
X-ALD mice = details: mouse, in vivo; cited from earlier work
[3] = in vivo; cited from earlier work
[4] = in vivo; cited from earlier work; remark: listed apart in the source
[5] = three boys, 140 mg/kg/day i.v. then 70 mg/kg four times daily orally; cited from earlier work
[6] = mouse, in vivo; cited from earlier work

- Water solubility (Solubility and stability): water insoluble
Compound: O=C(O)CCCc1ccccc1 [Free 4PBA, 4-phenyl butyric acid]
- VLCFA-induced TNF-alpha response, free drug (TNF-alpha): reduced the VLCFA-induced TNF-alpha response
- LysoPC C26/C22 ratio, free drug [1]: no effect
- Very-long-chain fatty acid levels and beta-oxidation [2]: decreased levels of and increased beta-oxidation of very-long-chain fatty acids

Compound: Oc1ccc(C=Cc2cc(O)cc(O)c2)cc1 [Resveratrol]
- Redox homeostasis, mitochondrial respiration, axonal degeneration, locomotor disabilities (X-ALD mice): normalize redox homeostasis, mitochondrial respiration, bioenergetic failure, axonal degeneration and associated locomotor disabilities in the X-ALD mice

- Water solubility (Solubility and stability): water insoluble
Compound: CC(C)(Oc1ccc(CCNC(=O)c2ccc(Cl)cc2)cc1)C(=O)O [Bezafibrate]

Compound: Cc1cc(OCC(=O)O)cc(C)c1Cc1ccc(O)c(C(C)C)c1 [sobetirome]
- Plasma LDL cholesterol and triglycerides in humans [3]: lowers plasma LDL cholesterol and reduces plasma triglycerides
- Serum lipids and cholesterol in animal models [4]: reduced serum lipids, decreased cholesterol levels

Compound: CC(=O)N[C@@H](CS)C(=O)O [NAC, N-acetyl-L-cysteine]
- MRI progression in advanced ccALD [5]: slowing of MRI progression and reversal of gadolinium-contrast enhancement on MRI

Compound: C[C@@H]1C[C@H]2[C@@H]3CCC4=CC(=O)C=C[C@]4(C)C3=CC[C@]2(C)[C@@]1(O)C(=O)CO [VBP15]
- Muscular dystrophy [6]: improves muscular dystrophy without side effects

— patent US20170119899A1, “COMPOSITIONS AND METHODS FOR TREATMENT OF PEROXISOMAL DISORDERS AND LEUKODYSTROPHIES” (The Johns Hopkins University, priority 2015, published 2017)
